Experimental findings from patent US20210009564A1, “CALPAIN MODULATORS AND THERAPEUTIC USES THEREOF” (BLADE THERAPERTICS, INC., priority 2018, published 2021) are described below.

Bounds are passed on as bounds.

For one experiment, the target named is T1, Human Calpain 1/NS1 (Homo sapiens, UniProt P07384).
T1 sequence (P07384 1-714): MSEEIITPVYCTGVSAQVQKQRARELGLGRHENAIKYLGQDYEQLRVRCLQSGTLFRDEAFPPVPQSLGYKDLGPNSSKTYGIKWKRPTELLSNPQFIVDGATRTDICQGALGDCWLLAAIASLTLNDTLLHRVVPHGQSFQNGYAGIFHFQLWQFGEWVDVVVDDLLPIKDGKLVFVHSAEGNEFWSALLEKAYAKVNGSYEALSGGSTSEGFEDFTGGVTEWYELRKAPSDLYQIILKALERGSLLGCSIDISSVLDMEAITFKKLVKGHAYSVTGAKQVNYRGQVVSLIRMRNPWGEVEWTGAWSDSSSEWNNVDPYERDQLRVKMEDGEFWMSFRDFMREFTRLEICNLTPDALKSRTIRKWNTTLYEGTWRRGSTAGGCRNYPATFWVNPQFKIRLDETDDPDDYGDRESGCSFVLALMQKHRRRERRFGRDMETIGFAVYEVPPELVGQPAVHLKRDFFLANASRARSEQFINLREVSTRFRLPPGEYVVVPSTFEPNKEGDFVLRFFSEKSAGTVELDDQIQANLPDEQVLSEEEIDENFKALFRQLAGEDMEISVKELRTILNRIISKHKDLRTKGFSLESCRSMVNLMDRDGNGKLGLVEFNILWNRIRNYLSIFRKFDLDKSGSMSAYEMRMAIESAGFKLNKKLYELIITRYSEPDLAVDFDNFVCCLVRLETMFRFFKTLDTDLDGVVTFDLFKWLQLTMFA
T1 sequence (P04632 1-268 partner): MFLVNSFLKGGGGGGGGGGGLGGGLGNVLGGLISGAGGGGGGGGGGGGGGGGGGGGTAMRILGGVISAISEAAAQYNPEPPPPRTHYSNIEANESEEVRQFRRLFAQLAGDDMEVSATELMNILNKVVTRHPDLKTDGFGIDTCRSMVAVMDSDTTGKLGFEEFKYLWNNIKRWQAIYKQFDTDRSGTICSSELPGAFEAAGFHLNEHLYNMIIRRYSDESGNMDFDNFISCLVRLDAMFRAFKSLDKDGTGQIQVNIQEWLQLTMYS
As to the kind of experiment: Calpain inhibition, continuous fluorescence (FRET substrate) assay, calpain 1. The experiment is classed as biochemical. Conditions: SensoLyte 520 FRET substrate, 25C. As for the experimental part:
(§1) Calpain 1, 2, and 9 activity and inhibition thereof was assessed by means of a continuous fluorescence assay. The SensoLyte 520 Calpain substrate (Anaspec Inc) was optimized for detecting calpain activity. This substrate contains an internally quenched 5-FAM/QXLTM 520 FRET pair. Calpains 1, 2, and 9 cleave the FRET substrate into two separate fragments resulting in an increase of 5-FAM fluorescence that is proportional to calpain activity Assays were typically setup in black 384-well plates using automated liquid handling as follows. Calpain assay base buffer typically contains 50 mM Tris, pH 7.5, 100 mM NaCl and 1 mM DTT. Inhibitors were serially diluted in DMSO and used to setup 2× mixtures with calpains in the aforementioned buffer. After incubation at ambient temperature (25C), the reaction was initiated by adding a 2× mix of the fluorescent peptide substrate and CaCl2) (required for in-situ calpain activation) in the same buffer. Reaction progress curve data were typically collected for 10 min using excitation/emission wavelengths of 490 nm/520 nm on SpectraMax i3× or the FLIPR-Tetra plate readers (Molecular Devices Inc). Reaction rates were calculated from progress curve slopes typically over 1-5 min. Dose response curves (rate vs. log inhibitor concentration) were typically fit to a 4-parameter logistic function to extract IC50 values.

A further experiment concerns the target T2, Human Calpain 2/NS1 (Homo sapiens, UniProt P17655).
T2 sequence (P17655 1-700): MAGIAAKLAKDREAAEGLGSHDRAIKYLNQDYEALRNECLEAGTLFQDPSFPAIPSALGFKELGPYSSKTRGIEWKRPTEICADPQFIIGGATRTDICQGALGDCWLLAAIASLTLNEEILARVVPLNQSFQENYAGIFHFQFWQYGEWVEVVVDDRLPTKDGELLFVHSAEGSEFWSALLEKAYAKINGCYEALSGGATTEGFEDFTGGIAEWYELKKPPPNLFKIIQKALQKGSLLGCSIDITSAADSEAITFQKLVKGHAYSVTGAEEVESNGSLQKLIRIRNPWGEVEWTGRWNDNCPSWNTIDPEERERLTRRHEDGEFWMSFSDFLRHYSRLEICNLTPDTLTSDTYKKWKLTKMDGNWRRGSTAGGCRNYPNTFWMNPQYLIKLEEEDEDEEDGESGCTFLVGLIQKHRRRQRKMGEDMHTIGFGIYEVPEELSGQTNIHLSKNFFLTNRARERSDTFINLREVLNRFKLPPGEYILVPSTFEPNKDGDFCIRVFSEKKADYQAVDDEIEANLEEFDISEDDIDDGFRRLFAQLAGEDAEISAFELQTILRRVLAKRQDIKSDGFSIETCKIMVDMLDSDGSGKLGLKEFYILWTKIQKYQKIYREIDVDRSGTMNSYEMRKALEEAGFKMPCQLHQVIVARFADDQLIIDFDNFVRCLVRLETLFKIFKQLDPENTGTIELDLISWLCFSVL
T2 sequence (P04632 1-268 partner): T1 sequence (P04632 1-268 partner)
In words: Calpain inhibition, continuous fluorescence (FRET substrate) assay, calpain 2. Conditions: SensoLyte 520 FRET substrate, 25C. The experiment is classed as biochemical. As for the experimental part:
as §1

A further experiment addresses T3, Human Calpain 9/NS1 (Homo sapiens, UniProt O14815).
T3 sequence (O14815 1-690): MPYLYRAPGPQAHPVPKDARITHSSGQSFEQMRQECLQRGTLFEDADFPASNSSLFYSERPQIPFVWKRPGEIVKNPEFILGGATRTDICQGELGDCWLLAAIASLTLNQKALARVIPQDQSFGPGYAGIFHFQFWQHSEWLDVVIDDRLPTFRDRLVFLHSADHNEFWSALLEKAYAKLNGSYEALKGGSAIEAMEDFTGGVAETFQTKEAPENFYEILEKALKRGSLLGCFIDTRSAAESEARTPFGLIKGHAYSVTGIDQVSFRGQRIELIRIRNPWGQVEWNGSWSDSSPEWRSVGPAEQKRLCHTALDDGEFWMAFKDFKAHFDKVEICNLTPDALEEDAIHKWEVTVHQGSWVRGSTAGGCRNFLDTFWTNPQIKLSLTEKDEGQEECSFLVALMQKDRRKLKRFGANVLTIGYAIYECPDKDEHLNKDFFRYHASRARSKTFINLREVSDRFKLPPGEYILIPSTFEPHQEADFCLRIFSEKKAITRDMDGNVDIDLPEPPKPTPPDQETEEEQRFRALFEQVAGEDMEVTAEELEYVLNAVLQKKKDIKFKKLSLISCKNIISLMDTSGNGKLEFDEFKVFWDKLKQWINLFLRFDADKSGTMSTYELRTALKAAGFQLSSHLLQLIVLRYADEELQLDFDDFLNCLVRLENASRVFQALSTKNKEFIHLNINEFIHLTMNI
T3 sequence (P04632 1-268 partner): T1 sequence (P04632 1-268 partner)
In words: Calpain inhibition, continuous fluorescence (FRET substrate) assay, calpain 9. Conditions: SensoLyte 520 FRET substrate, 25C. The experiment is classed as biochemical. As to the method:
as §1

Experiment [1] has as its system Calpain activity in SH-SY5Y cells. In words: SH-SY5Y spectrin breakdown product (SBDP-150) western blot assay. In kind it is cell-based. Conditions: read-out: SH-SY5Y Spectrin IC50. A general note: Immunoblotting shows a protein as a band on a membrane.
The test system is the same in experiment [2]. As to the kind of experiment: SH-SY5Y Suc-LLVY-AMC fluorescence assay. The experiment is classed as cell-based. To be noted: read-out: SH-SY5Y + AMC IC50.
Setting [3] is: Homo sapiens, SH-SY5Y cells, 25 uM A23187, SBDP-150 western blot.
Setting [4] is: Homo sapiens, SH-SY5Y cells, 100 uM Suc-LLVY-AMC.

For orientation: IC50 means the concentration at which inhibition is half-maximal. Consider `N#CC(Cc1ccccc1)NC(=O)c1nsnc1-c1ccccc1` (stereo not shown) [Compound 82, N-(1-CYANO-2-PHENYLETHYL)-4-PHENYL-1,2,5-THIADIAZOLE-3-CARBOXAMIDE], for which the 50% inhibitory concentration (IC50) against Human Calpain 1/NS1 was greater than 10 µM; against Human Calpain 2/NS1 it was greater than 10 µM; against Human Calpain 9/NS1, greater than 10 µM; in experiment [1] (setting [3]), greater than 25 µM; in experiment [2] (setting [4]), greater than 25 µM.

Consider `Cc1nc(-c2ccccc2F)c(C(=O)NC(Cc2ccccc2Cl)C(=O)C(N)=O)o1` (stereo not shown) [Compound 83, N-(4-AMINO-1-(2-CHLOROPHENYL)-3,4-DIOXOBUTAN-2-YL)-4-(2-FLUOROPHENYL)-2-METHYLOXAZOLE-5-CARBOXAMIDE], for which the IC50 at Human Calpain 1/NS1 is less than 3 µM; against Human Calpain 2/NS1 it was less than 3 µM; against Human Calpain 9/NS1, less than 3 µM; in experiment [1] (setting [3]), greater than 25 µM; in experiment [2] (setting [4]), less than 10 µM.

Regarding `Cc1nc(-c2cccc3ccsc23)c(C(=O)NC(Cc2ccccc2)C(=O)C(N)=O)o1` (stereo not shown) [Compound 91, N-(4-AMINO-3,4-DIOXO-1-PHENYLBUTAN-2-YL)-4-(BENZO[b]THIOPHEN-7-YL)-2-METHYLOXAZOLE-5-CARBOXAMIDE], the IC50 was less than 3 µM at Human Calpain 1/NS1; less than 3 µM on Human Calpain 2/NS1; less than 3 µM against Human Calpain 9/NS1; less than 10 µM in experiment [1] (setting [3]); less than 10 µM in experiment [2] (setting [4]).

Consider `NC(=O)C(=O)C(Cc1ccccc1)NC(=O)c1cnoc1-c1cccc2c1OCO2` (stereo not shown) [Compound 5, N-(4-AMINO-3,4-DIOXO-1-PHENYLBUTAN-2-YL)-5-(BENZO[d][1,3]DIOXOL-4-YL)ISOXAZOLE-4-CARBOXAMIDE], for which the 50% inhibitory concentration (IC50) on Human Calpain 1/NS1 was less than 3 µM; on Human Calpain 2/NS1, less than 3 µM; against Human Calpain 9/NS1 it was less than 3 µM; in experiment [1] (setting [3]), 10 to 25 µM; in experiment [2] (setting [4]), less than 10 µM.

Regarding `O=C(NC(Cc1ccccc1)C(=O)c1ncco1)c1nsnc1-c1ccccc1` (stereo not shown) [Compound 85, N-(1-(OXAZOL-2-YL)-1-OXO-3-PHENYLPROPAN-2-YL)-4-PHENYL-1,2,5-THIADIAZOLE-3-CARBOXAMIDE], the IC50 against Human Calpain 1/NS1 is greater than 10 µM; against Human Calpain 2/NS1 it was greater than 10 µM; on Human Calpain 9/NS1 it was greater than 10 µM; in experiment [1] (setting [3]), greater than 25 µM; in experiment [2] (setting [4]), less than 10 µM.

For `Cc1nc(-c2ccccc2F)c(C(=O)NC(Cc2cccc(F)c2)C(=O)C(N)=O)o1` (stereo not shown) [Compound 87, N-(4-AMINO-1-(3-FLUOROPHENYL)-3,4-DIOXOBUTAN-2-YL)-4-(2-FLUOROPHENYL)-2-METHYLOXAZOLE-5-CARBOXAMIDE], the half-maximal inhibitory concentration (IC50) was less than 3 µM against Human Calpain 1/NS1; less than 3 µM against Human Calpain 2/NS1; less than 3 µM against Human Calpain 9/NS1; 10 to 25 µM in experiment [1] (setting [3]); less than 10 µM in experiment [2] (setting [4]).

With `Cn1cc(C(=O)NC(Cc2ccccc2)C(=O)C(=O)O)c(-c2ccccc2F)n1` (stereo not shown) [Compound 65, 3-(3-(2-FLUOROPHENYL)-1-METHYL-1H-PYRAZOLE-4-CARBOXAMIDO)-2-OXO-4-PHENYLBUTANOIC ACID], the IC50 at Human Calpain 1/NS1 was less than 3 µM; at Human Calpain 2/NS1, less than 3 µM; against Human Calpain 9/NS1 it was less than 3 µM; in experiment [1] (setting [3]), greater than 25 µM; in experiment [2] (setting [4]), less than 10 µM.

Regarding `NC(=O)C(=O)C(Cc1ccccc1)NC(=O)c1oc(C(F)F)nc1-c1cccc2cn[nH]c12` (stereo not shown) [Compound 94, N-(4-AMINO-3,4-DIOXO-1-PHENYLBUTAN-2-YL)-2-(DIFLUOROMETHYL)-4-(1H-INDAZOL-7-YL)OXAZOLE-5-CARBOXAMIDE], the IC50 at Human Calpain 1/NS1 was less than 3 µM; at Human Calpain 2/NS1, less than 3 µM; on Human Calpain 9/NS1, less than 3 µM; in experiment [1] (SH-SY5Y cells, 25 uM A23187, SBDP-150 western blot), less than 10 µM; in experiment [2] (SH-SY5Y cells, 100 uM Suc-LLVY-AMC), less than 10 µM.

Turning to `Cn1cc(C(=O)NC(Cc2ccccc2)C(=O)C(N)=O)c(-c2ccoc2Cl)n1` (stereo not shown) [Compound 19, N-(4-AMINO-3,4-DIOXO-1-PHENYLBUTAN-2-YL)-3-(2-CHLOROFURAN-3-YL)-1-METHYL-1H-PYRAZOLE-4-CARBOXAMIDE], the IC50 against Human Calpain 1/NS1 is less than 3 µM; against Human Calpain 2/NS1 it was less than 3 µM; against Human Calpain 9/NS1 it was less than 3 µM; in experiment [1] (setting [3]) it was greater than 25 µM; in experiment [2] (setting [4]), less than 10 µM.

For `Cc1nc(-c2ccccc2F)c(C(=O)NC(Cc2ccccc2F)C(=O)C(N)=O)o1` (stereo not shown) [Compound 80, N-(4-AMINO-1-(2-FLUOROPHENYL)-3,4-DIOXOBUTAN-2-YL)-4-(2-FLUOROPHENYL)-2-METHYLOXAZOLE-5-CARBOXAMIDE], the IC50 is less than 3 µM against Human Calpain 1/NS1; less than 3 µM against Human Calpain 2/NS1; less than 3 µM against Human Calpain 9/NS1; less than 10 µM in experiment [1] (setting [3]); less than 10 µM in experiment [2] (setting [4]).

With `Cc1cc(C(=O)NC(Cc2ccccc2)C(=O)C(N)=O)nn1-c1nccc(-c2ccccc2)n1` (stereo not shown) [Compound 59, N-(4-AMINO-3,4-DIOXO-1-PHENYLBUTAN-2-YL)-5-METHYL-1-(4-PHENYLPYRIMIDIN-2-YL)-1H-PYRAZOLE-3-CARBOXAMIDE], the half-inhibitory concentration (IC50) against Human Calpain 1/NS1 was greater than 10 µM; against Human Calpain 2/NS1 it was 3 to 10 µM; at Human Calpain 9/NS1 it was greater than 10 µM; in experiment [1] (Homo sapiens, SH-SY5Y), greater than 25 µM; in experiment [2] (Homo sapiens, SH-SY5Y), less than 10 µM.
